From patent publication US9617214B2, “Compounds for cognitive enhancement and methods of use thereof” (The Translational Genomics Research Institute, priority 2013, dated 2017)
“Also recorded” adds a separate entry of the source. Like-named read-outs stand apart in the source and are kept apart here.

Tests used:
ROCK1 [1] = target: T1, ROCK1 (Homo sapiens, UniProt Q13464); test: ROCK1 enzyme activity at 10 μM; assay type: biochemical; conditions: 10 μM compound
Method: (§1) Enzyme activity of ROCK1 and ROCK2 were studied at 10 μM to compare the inhibition activity of ROCK inhibitors. Table 2 summarizes the extent of inhibition of the compounds of the inventions.

ROCK2 [2] = target: T2, ROCK2 (Homo sapiens, UniProt O75116); test: ROCK2 enzyme activity at 10 μM; assay type: biochemical; conditions: 10 μM compound
Method: as §1

H4-tau cells [3] = test: p-tau protein to total tau protein ratio in H4-tau cells at IC10 dosage, 96-hour time course, ELISA; assay type: cell-based, human; conditions: 96-hour time course, compared to vehicle (DMSO), two-sided t-test
Method: Thirteen different ROCK inhibitors were tested for their effect on the ratio of p-tau protein to total tau protein. […] Alamar Blue was used after cells were treated with the respective compounds at various dosages to determine the IC10 value. The compounds were applied to H4-tau cells over a 96-hour time course with 8 time points (at hours 12, 24, 36, 48, 60, 72, 84, and 96). At each time point, total cell protein was collected and p-tau protein and total tau protein was assessed using an enzyme-linked immunosorbent assay. The p-tau to total tau protein ratio at each time point for each drug was compared to the corresponding time point for cells treated with vehicle (DMSO) used to solubilize the respective compound.
Two-sided t-tests were used to determine significant changes in the p-tau protein to total tau protein ratio for each drug across the entire time course at each tested time point. Cells treated by drug were compared to cells treated to vehicle.

ROCK1 [4] = target: T1, ROCK1; test: IC50 value for ROCK1 activity; assay type: biochemical; conditions: ATP at Km (10 μM)
ROCK2 [5] = target: T2, ROCK2; test: IC50 value for ROCK2 activity; assay type: biochemical; conditions: ATP at Km (10 μM)
H4-tau cells [6] = test: Validation time course in H4-tau cells at IC50 (cell survival) dosage: p-tau and total tau protein by ELISA; assay type: cell-based, human; conditions: IC50 dosage for cell survival, over 96 hours; for concentration of total tau protein: FIG. 2; for concentration of p-tau protein: FIG. 3
Method: The time course was repeated using 4 biological replicates over 96 hours and 10 time points (at hours 0, 6, 12, 24, 36, 48, 60, 72, 84, and 96). Total cell protein was collected at each time point and ELISAs were used to measure p-tau protein and total tau protein.

Aβ42 = conditions: mouse model of AD; cited from earlier work
rats [7] = conditions: cited from earlier work
rats [8] = conditions: aged rats; cited from earlier work
[9] = Test 1, read-out: % enzyme activity at 10 μM ROCK1 Test 1
[10] = Test 2, read-out: % enzyme activity at 10 μM ROCK1 Test 2
[11] = Test 1, read-out: % enzyme activity at 10 μM ROCK2 Test 1
[12] = Test 2, read-out: % enzyme activity at 10 μM ROCK2 Test 2

T1 sequence (Q13464 whole entry): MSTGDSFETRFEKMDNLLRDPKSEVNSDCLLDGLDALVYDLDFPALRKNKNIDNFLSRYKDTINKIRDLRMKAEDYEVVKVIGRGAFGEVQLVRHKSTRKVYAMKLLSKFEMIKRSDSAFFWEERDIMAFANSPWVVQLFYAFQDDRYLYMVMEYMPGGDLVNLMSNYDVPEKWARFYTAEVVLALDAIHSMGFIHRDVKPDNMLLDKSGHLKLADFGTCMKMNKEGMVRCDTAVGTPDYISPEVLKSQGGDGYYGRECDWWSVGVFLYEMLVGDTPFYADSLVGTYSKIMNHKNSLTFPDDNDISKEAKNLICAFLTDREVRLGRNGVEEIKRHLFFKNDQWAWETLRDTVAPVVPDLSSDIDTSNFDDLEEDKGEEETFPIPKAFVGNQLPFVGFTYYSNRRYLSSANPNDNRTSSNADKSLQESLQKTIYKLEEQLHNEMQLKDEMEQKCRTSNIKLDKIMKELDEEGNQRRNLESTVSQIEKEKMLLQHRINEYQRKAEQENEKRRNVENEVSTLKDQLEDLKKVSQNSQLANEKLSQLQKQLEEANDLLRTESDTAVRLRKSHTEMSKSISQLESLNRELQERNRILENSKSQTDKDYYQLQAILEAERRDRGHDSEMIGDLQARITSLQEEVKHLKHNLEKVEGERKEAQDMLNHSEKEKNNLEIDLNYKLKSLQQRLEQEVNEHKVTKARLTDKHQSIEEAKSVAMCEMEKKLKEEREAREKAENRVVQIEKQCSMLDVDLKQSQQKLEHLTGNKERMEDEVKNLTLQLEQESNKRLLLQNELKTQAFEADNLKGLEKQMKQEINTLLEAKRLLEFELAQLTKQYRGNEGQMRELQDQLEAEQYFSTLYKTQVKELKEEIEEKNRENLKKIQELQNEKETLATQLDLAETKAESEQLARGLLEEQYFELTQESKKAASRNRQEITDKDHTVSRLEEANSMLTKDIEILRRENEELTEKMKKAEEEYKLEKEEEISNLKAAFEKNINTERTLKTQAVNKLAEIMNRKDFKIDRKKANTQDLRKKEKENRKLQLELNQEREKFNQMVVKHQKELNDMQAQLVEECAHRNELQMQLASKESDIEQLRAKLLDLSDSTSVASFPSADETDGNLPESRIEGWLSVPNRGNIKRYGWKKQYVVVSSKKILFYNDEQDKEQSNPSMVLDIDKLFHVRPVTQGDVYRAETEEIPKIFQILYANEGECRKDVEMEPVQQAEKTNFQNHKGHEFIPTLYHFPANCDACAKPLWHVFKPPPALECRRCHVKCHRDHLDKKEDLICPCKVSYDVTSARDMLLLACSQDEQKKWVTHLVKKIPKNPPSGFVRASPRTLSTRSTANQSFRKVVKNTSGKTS
T2 sequence (O75116 whole entry): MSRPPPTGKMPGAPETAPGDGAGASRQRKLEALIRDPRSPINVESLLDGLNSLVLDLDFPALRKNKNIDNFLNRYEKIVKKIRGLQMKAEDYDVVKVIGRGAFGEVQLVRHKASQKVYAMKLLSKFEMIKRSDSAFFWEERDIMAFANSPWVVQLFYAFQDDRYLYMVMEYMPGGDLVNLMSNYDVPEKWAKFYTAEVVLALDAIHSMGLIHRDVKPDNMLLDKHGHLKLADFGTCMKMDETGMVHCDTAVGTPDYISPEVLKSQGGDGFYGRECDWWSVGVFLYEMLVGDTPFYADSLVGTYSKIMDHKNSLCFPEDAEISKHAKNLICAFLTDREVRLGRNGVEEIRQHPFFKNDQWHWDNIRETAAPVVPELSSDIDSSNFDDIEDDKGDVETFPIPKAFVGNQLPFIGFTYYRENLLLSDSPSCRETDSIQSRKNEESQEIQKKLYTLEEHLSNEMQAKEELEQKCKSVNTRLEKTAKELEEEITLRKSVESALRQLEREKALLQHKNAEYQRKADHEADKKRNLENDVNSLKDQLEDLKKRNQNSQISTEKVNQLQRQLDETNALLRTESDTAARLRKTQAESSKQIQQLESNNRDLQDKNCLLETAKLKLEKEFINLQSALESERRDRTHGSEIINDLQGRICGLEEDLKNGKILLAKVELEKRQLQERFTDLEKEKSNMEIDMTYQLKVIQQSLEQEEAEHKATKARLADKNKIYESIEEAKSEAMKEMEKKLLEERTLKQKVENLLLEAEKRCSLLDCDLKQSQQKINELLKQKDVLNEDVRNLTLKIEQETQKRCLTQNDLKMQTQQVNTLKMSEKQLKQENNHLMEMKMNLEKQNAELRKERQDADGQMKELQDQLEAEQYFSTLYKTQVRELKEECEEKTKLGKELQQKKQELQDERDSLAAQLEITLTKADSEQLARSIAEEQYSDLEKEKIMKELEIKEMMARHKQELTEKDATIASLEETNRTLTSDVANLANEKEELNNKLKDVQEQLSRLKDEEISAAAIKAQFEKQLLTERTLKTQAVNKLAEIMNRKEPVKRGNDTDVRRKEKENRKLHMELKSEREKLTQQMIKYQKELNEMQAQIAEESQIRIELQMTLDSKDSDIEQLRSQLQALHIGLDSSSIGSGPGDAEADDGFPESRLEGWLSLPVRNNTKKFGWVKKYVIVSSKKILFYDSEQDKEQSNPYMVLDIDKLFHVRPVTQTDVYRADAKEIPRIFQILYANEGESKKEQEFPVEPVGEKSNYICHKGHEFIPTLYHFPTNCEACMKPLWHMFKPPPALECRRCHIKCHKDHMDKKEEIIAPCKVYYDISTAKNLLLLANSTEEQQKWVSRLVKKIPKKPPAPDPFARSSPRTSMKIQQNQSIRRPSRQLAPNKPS

| Structure (SMILES) | remaining activity at 10 µM (ROCK1 [1]; [9]) [%] | remaining activity at 10 µM (ROCK1 [1]; [10]) [%] | remaining activity at 10 µM (ROCK2 [2]; [11]) [%] | remaining activity at 10 µM (ROCK2 [2]; [12]) [%] | p-tau protein to total tau protein ratio (H4-tau cells [3]) | further results |
| --- | --- | --- | --- | --- | --- | --- |
| O=S(=O)(c1cccc2cnccc12)N1CCCN(Cc2ccc(F)cc2)CC1 [Compound T306] | 6.75 | 6.94 | 3.85 | 3.62 |  |  |
| CC(Cc1ccc(F)cc1)NC(=O)c1ccc(-c2ccncc2)cc1 (stereo not shown) [Compound T350] |  |  |  |  | significant decrease |  |
| CC(N)C1CCC(C(=O)Nc2ccncc2)CC1 (stereo not shown) [Compound Y27632, 4-(1-aminoethyl)-N-pyridin-4-yl-cyclohexane-1-carboxamide] |  |  |  |  |  | brain levels of Aβ42 (Aβ42): preferentially lowered; memory and learning (rats [7]; rats with ischemia): increased; hyperphosphorylation of the tau protein (rats [7]; rats, hyperphosphorylation due to ischemia): decreased; memory and learning (rats [7]; sham rats, no hyperphosphorylation of the tau protein): decreased |
| O=S(=O)(c1cccc2cnccc12)N1CCCNCC1 [Fasudil, 5-(1,4-diazepan-1-ylsulfonyl)isoquinoline, reference compound] |  |  |  |  |  | learning and memory (rats [8]): increased; concentration of total tau protein (H4-tau cells [6]): lesser concentrations; concentration of p-tau protein (H4-tau cells [6]): lesser concentrations |

Now from value to compound, other results behind:

| remaining activity at 10 µM (ROCK1 [1]; [9]) [%] | remaining activity at 10 µM (ROCK1 [1]; [10]) [%] | remaining activity at 10 µM (ROCK2 [2]; [11]) [%] | remaining activity at 10 µM (ROCK2 [2]; [12]) [%] | Structure (SMILES) | p-tau protein to total tau protein ratio (H4-tau cells [3]) | further results |
| --- | --- | --- | --- | --- | --- | --- |
| 0.97 | 2.38 |  |  | O=C(Nc1ccc(-c2cn[nH]c2)cc1)C1COc2ccccc2C1 (stereo not shown) [Compound T299] |  |  |
| 3.26 | 2.65 | 0.78 | 0.55 | O=C(Nc1cccc(-c2ccncc2)c1)C1COc2ccccc2C1 (stereo not shown) [Compound T303] | significant decrease |  |
| 1.22 | 1.17 | 0.08 | 0.56 | O=C(NCCc1cccc(Cl)c1)c1ccc(-c2ccncc2)cc1 [Compound T343] | significant decrease | IC50 (ROCK1 [4]; Test 1, read-out: IC50 (μM) ROCK1 Test 1): 0.0318 µM; IC50 (ROCK1 [4]; Test 2, read-out: IC50 (μM) ROCK1 Test 2): 0.0227 µM; IC50 (ROCK2 [5]; Test 1, read-out: IC50 (μM) ROCK2 Test 1): 0.0167 µM; IC50 (ROCK2 [5]; Test 2, read-out: IC50 (μM) ROCK2 Test 2): 0.0102 µM; p-tau protein to total tau protein ratio (H4-tau cells [6]; 4 biological replicates, FIG. 4): significant decrease; also recorded: decreased ratio; concentration of total tau protein (H4-tau cells [6]): lesser concentrations; concentration of p-tau protein (H4-tau cells [6]): lesser concentrations |
